Assay results as given in publication PMC10250785, “Aromatic oligoesters as novel helix mimetic scaffolds” (Bioorganic & Medicinal Chemistry, 2023).

Legend:
[1] = Aqueous stability of dimers in buffered pH solutions (TLC, LCMS/HPLC UV); assay type: physicochemical; settings: r.t.; for remaining at 168 h, 5 mg/mL: bicarbonate buffer pH 12.5 / acetonitrile (1:1), pH 12.5 (bicarbonate) buffer, 50% MeCN: buffer, 5 mg/mL dimer, after 7 days, from HPLC UV traces
Experimental: Human serum pH is tightly regulated around 7.4, with intracellular pH controlled between pH 6.0–7.2, and gastric pH between 1.4–3.5.[37] […] Given the prevalence of ester linkages in pro-drug structures[38] and the facile hydrolysis of esters in aqueous media, the stability of our scaffold was a concern. We therefore investigated the stability of dimers 25 and 29 over extended periods of time in aqueous solution from pH2.5–12.5. To monitor dimer stability over time, 10 mM pH buffer solutions of: 2.5(acetate), 5.0(acetate), 7.4 (phosphate-buffered saline), 10.0 (bicarbonate), and 12.5 (bicarbonate) were selected, to obtain a pH range similar to those present within the human body. Since both dimers are insoluble in water, they were firstly dissolved in acetonitrile, before addition to the buffered solutions to form a 5 mg/mL dimer solution (50% MeCN: buffer). Degradation was monitored via TLC over time, and the final solution composition was determined by LCMS after 7 days (Fig 3 and Figure S3).
Fig. 3 Dimers 25 and 29 were incubated for 7 days in a range of buffered pH solutions and % dimer remaining measured by integration of UV peaks from an HPLC Diode array trace.
To pre-prepared 100 mM pH buffer solutions (1.00 mL), including pH 2.5, 5.0, 7.4, 10.0 and 12.5 (Table 2), was added the dimer (10 mg/mL in MeCN) at r.t, forming a final solution with dimer concentration 5 mg/mL. The mixture was stirred at r.t. for 7 days and monitored via TLC and LCMS (50% MeCN) to follow ester bond degradation.

| melting point | remaining at 168 h, 5 mg/mL [1] | time before ester hydrolysis occurs ([1]; pH 12.5, 50% MeCN: buffer) | SMILES |
| --- | --- | --- | --- |
| 67 to 68 °C | – | – | C=CCOc1ccc(C(=O)OC)cc1O [Compound 1, Methyl 4-(allyloxy)-3-hydroxybenzoate] |
| – | 6% | > 5 days | C=CCOc1ccc(C(=O)Oc2ccc(C(=O)OC)cc2OC(C)C)cc1OC(C)C [Compound 25, 2-isopropoxy-4-(methoxycarbonyl)phenyl 4-(allyloxy)-3-isopropoxybenzoate] |
| – | 49% | – | COC(=O)c1ccc(OC(=O)c2ccc(O)c(OC)c2)c(OC)c1 [Compound 29, 2-methyoxy-4-(methoxycarbonyl)phenyl 4-hydroxy-3-methoxybenzoate] |
